Consider 3 compounds from patent US20230075368A1, “IDENTIFICATION OF AN EGFR-BIN3 PATHWAY THAT ACTIVELY SUPPRESSES INVASION AND REDUCES TUMOR SIZE IN GLIOBLASTOMA” (The United States Govemment as represented by the …, priority 2020, published 2023).

Assay [1] relates to orthotopic glioblastoma tumors (Mayo PDXs). Nature of the assay: Orthotopic glioblastoma xenotransplant model treated with tofacitinib. Format: in vivo, mice. The protocol:
4 to 6 weeks old female athymic nude mice were purchased from Charles River Laboratories. Mayo PDXs were injected into the right corpus striatum of the brains of 6-8 week-old nude mice using a stereotactic frame. […] Kaplan-Maier survival curves were calculated using GraphPad Prism 7.0 software. Alzet Osmotic pumps were installed for brain delivery of EGF or vehicle in tumor bearing mice. To monitor the mice with orthotropic xenografts, MRI was performed at the Mouse MRI Core, Advanced Imaging Research Center, at UT Southwestern.
Knockdown efficiency of HB-EGF in GBM39 control shRNA (GBM39shCtrl) and HB-EGF shRNA (GBM39shHB-EGF_1, GBM39shHB-EGF_2) clones was confirmed by ELISA (FIG. 21I). […] The Western blot images are representative of three independent biological replicates. Actin served as loading control. Scale bars: […]. Data are represented as mean±SEM from three independent experiments. ***P<0.001, […], n.s. not significant, unpaired two-tailed t-test.

For a further assay, the system named is GBM12 and GBM6 cells. Nature of the assay: Scratch-wound assay. Particulars: EGF 50 ng/ml, 24 hours. Format: cell-based, human. The procedure: Cells were cultured in 6 well plate until they reached around 100% confluence. A scratch wound was produced on the monolayer using a sterile 200 ul pipette tip. The cell cultured with serum free DMEM containing EGF (50 ng/ml) or vehicle control. Images of wound were captured 0 and 24 hours after scratch generation.
Referring to FIG. 4A-D, an analysis of glioma cell migration by in vitro scratch assays is shown. […] Data are represented as mean±SEM from three independent experiments. ** P<0.01, unpaired two-tailed t-test.

The subject of another assay is EMP1. The experiment in a line: Western blot of EMP1. Format: cell-based, human. Particulars: EGF 50 ng/ml, 24 hours; GBM12 and GBM6. The procedure: (§1) Whole protein extracts from cells or tumor tissues were analyzed by western blot as previously described (Altieri et al. (2015) Surg. Technol. Int 27: 297-302). Mayo PDX cells were serum starved overnight. Following treatment for specific time, cells were harvested and lysed. The human glioblastoma tissues were ground in liquid nitrogen and then were lysed. EGFR (06-847) antibody was from Millipore. DOCK7 was from Proteintech (Rosemont, Ill.). pEGFR (2236), STAT3 (12640), pSTAT3 (9145), cdc42(4376), and RhoA (4695) antibodies were from Cell Signaling Technology (Danvers, Mass.). TGFα antibody was from R&D system. BIN3 (sc-514396) and (3-Actin (sc-47778) were from Santa Cruz Biotechnology (Dallas, Tex.).
Referring to FIG. 23A-P, EGFR induced EMP1 overexpression drives invasion and is mediated by Nanog. Specifically, cells were transiently transfected with empty or EGFRwt or EGFRvIII vector for 48 hours, and subjected to Western blot analysis for EGFR, pEGFR, BIN3 and EMP1 (FIG. 23A). Similar experiments were performed in GBM14 (FIG. 23B). […] Similar experiments were performed in GBM14 (FIG. 23E). Efficiency of EMP1 knockdown and EGFR overexpression was confirmed by Western blot analysis (FIG. 23F and FIG. 23G). […] FIG. 23J and FIG. 23K show EMP1 mRNA levels in EGFR and EGFRvIII overexpressing GBM12 and GBM14, measured by RT-PCR. […]
For orientation: In western blotting, separated proteins are transferred to a membrane and probed.

For another assay, the system named is Met. Nature of the assay: Western blot of pMet and total Met. The format is cell-based, human. Particulars: HGF 20 ng/ml; GBM12 and GBM6. The procedure: as §1
Referring to FIG. 11A-E, HGF induces invasion in GBM12 and GBM6. […] Cells were seeded on Matrigel coated inserts for 24 hours in the absence or presence of HGF (20 ng/ml). A Western blot analysis of DOCK7 antibody immunoprecipitated extracts from GBM12 and GBM6 treated with HGF for 24 hours (20 ng/ml) is shown in FIG. 11C. A Western blot showing GTP-bound RhoA (RhoA-GTP) and total RhoA levels after HGF treatment for 24 hours in GBM12 and GBM6 is shown in FIG. 11D. A Western blot showing CDC42-GTP and total CDC42 levels after HGF treatment (20 ng/ml) for 24 hours in GBM12 and GBM6. The Western blot images are representative of three independent biological replicates. […]

Setting [2] is: GBM12V tumors, tofacitinib 50 mg/kg, oral gavage.
Where [3] appears, read: orthotopic GBM39 with HBEGF silenced, tofacitinib treated.

`C[C@@H]1CCN(C(=O)CC#N)C[C@@H]1N(C)c1ncnc2[nH]ccc12` [tofacitinib]: the survival benefit entry in assay [1] (GBM12TGFα tumors, tofacitinib 50 mg/kg, oral gavage) is listed as “no additional benefit”. In addition, in assay [1] (setting [2]), the survival entry was “significant improvement in survival” and the “tumor invasion (H&E, SMI-31)” value is on record as “decreased invasion”. For the same compound, the “infiltration of surrounding normal tissue” value in assay [1] (GBM12 or GBM6 orthotopic model, 40 mg/kg/day for 3 weeks) is given as “do not infiltrate the surrounding normal tissue”. The survival entry in assay [1] (GBM12 or GBM6 orthotopic model, 40 mg/kg/day for 3 weeks, from one week after intracranial injection) is “prolong survival”. Besides, in assay [1] (GBM39 with HBEGF silenced vs. controls), the “responsiveness of orthotopic tumors” value is given as “more responsive”. Besides, in assay [1] (setting [3]), the survival result is “improved” and the tumor invasiveness result is “less invasive”.
As for “EGF: Recombinant human EGF (AF-100) from Peprotech; EGFR ligand”, in the assay on GBM12 and GBM6 cells, the “migration (scratch wound closure)” value is “suppressing migration”. Besides, the EMP1 level entry with EMP1 was “does not affect EMP1 level”.
Regarding HGF: the ligand for Met, in the assay on Met, the Met phosphorylation result is listed as “increased”.
